# Test results: patent US7396837B2, “Antitumoral analogs of lamellarins” (Pharma Mar, S.A.U., priority 2002, dated 2008)
# What was measured:
# Format in all cases: cell-based
# HeLa = experiment: SRB colorimetric cell growth inhibition assay, HeLa; conditions: Homo sapiens, HeLa; for GI50: GI=growth inhibition, read-out: GI50 HELA; for CC50: LC=cell killing (cytotoxic effect), read-out: LC50 HELA; for IC (TGI): TGI=total growth inhibition (cytostatic effect), read-out: TGI HELA
# Method in brief: (§1)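 Growth inhibition (GI), cytostatic total growth inhibition (TGI) and cytotoxic cell-kill (LC) parameters were calculated from SRB-stained cultures held under constant compound exposure, triplicates averaged.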
# PANC-1 = experiment: SRB colorimetric cell growth inhibition assay, PANC-1; conditions: Homo sapiens, PANC-1, PANC-1; for GI50: GI=growth inhibition, read-out: GI50 PANC-1; for CC50: LC=cell killing (cytotoxic effect), read-out: LC50 PANC-1; for IC (TGI): TGI=total growth inhibition (cytostatic effect), read-out: TGI PANC-1
# Method in brief: as §1
# HeLa-APL = experiment: SRB colorimetric cell growth inhibition assay, HeLa-APL (aplidine resistant); conditions: Homo sapiens, HELA-APL; for GI50: GI=growth inhibition, read-out: GI50 HELA-APL; for CC50: LC=cell killing (cytotoxic effect), read-out: LC50 HELA-APL; for IC (TGI): TGI=total growth inhibition (cytostatic effect), read-out: TGI HELA-APL
# Method in brief: as §1
# LoVo-Dox = experiment: SRB colorimetric cell growth inhibition assay, LoVo-Dox (MDR); conditions: Homo sapiens, LOVO-DOX; for GI50: GI=growth inhibition, read-out: GI50 LOVO-DOX; for CC50: LC=cell killing (cytotoxic effect), read-out: LC50 LOVO-DOX; for IC (TGI): TGI=total growth inhibition (cytostatic effect), read-out: TGI LOVO-DOX
# Method in brief: as §1
# IGROV-ET = experiment: SRB colorimetric cell growth inhibition assay, IGROV-ET (ET-743 resistant); conditions: Homo sapiens, IGROV-ET; for GI50: GI=growth inhibition, read-out: GI50 IGROV-ET; for CC50: LC=cell killing (cytotoxic effect), read-out: LC50 IGROV-ET; for IC (TGI): TGI=total growth inhibition (cytostatic effect), read-out: TGI IGROV-ET
# Method in brief: as §1
# K-562 = experiment: SRB colorimetric cell growth inhibition assay, K-562; conditions: Homo sapiens, K562, K-562; for GI50: GI=growth inhibition, read-out: GI50 K-562; for CC50: LC=cell killing (cytotoxic effect), read-out: LC50 K-562; for IC (TGI): TGI=total growth inhibition (cytostatic effect), read-out: TGI K-562
# Method in brief: as §1
# HT-29 = experiment: SRB colorimetric cell growth inhibition assay, HT-29; conditions: Homo sapiens, HT-29, HT-29; for GI50: GI=growth inhibition, read-out: GI50 HT-29; for CC50: LC=cell killing (cytotoxic effect), read-out: LC50 HT-29; for IC (TGI): TGI=total growth inhibition (cytostatic effect), read-out: TGI HT-29
# Method in brief: as §1
# LoVo = experiment: SRB colorimetric cell growth inhibition assay, LoVo; conditions: Homo sapiens, LoVo; for GI50: GI=growth inhibition, read-out: GI50 LOVO; for CC50: LC=cell killing (cytotoxic effect), read-out: LC50 LOVO; for IC (TGI): TGI=total growth inhibition (cytostatic effect), read-out: TGI LOVO
# Method in brief: as §1
# A-549 = experiment: SRB colorimetric cell growth inhibition assay, A-549; conditions: Homo sapiens, A549, A-549; for GI50: GI=growth inhibition, read-out: GI50 A-549; for CC50: LC=cell killing (cytotoxic effect), read-out: LC50 A-549; for IC (TGI): TGI=total growth inhibition (cytostatic effect), read-out: TGI A-549
# Method in brief: as §1
# SK-BR-3 = experiment: SRB colorimetric cell growth inhibition assay, SK-BR-3; conditions: Homo sapiens, SK-BR-3, SK-BR-3; for GI50: GI=growth inhibition, read-out: GI50 SK-BR-3; for CC50: LC=cell killing (cytotoxic effect), read-out: LC50 SK-BR-3; for IC (TGI): TGI=total growth inhibition (cytostatic effect), read-out: TGI SK-BR-3
# Method in brief: as §1
# DU-145 = experiment: SRB colorimetric cell growth inhibition assay, DU-145; conditions: Homo sapiens, DU-145, DU-145; for GI50: GI=growth inhibition, read-out: GI50 DU-145; for CC50: LC=cell killing (cytotoxic effect), read-out: LC50 DU-145; for IC (TGI): TGI=total growth inhibition (cytostatic effect), read-out: TGI DU-145
# Method in brief: as §1
# IGROV = experiment: SRB colorimetric cell growth inhibition assay, IGROV; conditions: Homo sapiens, IGROV; for GI50: GI=growth inhibition, read-out: GI50 IGROV; for CC50: LC=cell killing (cytotoxic effect), read-out: LC50 IGROV; for IC (TGI): TGI=total growth inhibition (cytostatic effect), read-out: TGI IGROV
# Method in brief: as §1
# LNCaP = experiment: SRB colorimetric cell growth inhibition assay, LNCaP; conditions: Homo sapiens, LNCaP, LN-caP; for GI50: GI=growth inhibition, read-out: GI50 LN-caP; for CC50: LC=cell killing (cytotoxic effect), read-out: LC50 LN-caP; for IC (TGI): TGI=total growth inhibition (cytostatic effect), read-out: TGI LN-caP
# Method in brief: as §1
# SK-MEL-28 = experiment: SRB colorimetric cell growth inhibition assay, SK-MEL-28; conditions: Homo sapiens, SK-MEL-28, MEL-28; for GI50: GI=growth inhibition, read-out: GI50 MEL-28; for CC50: LC=cell killing (cytotoxic effect), read-out: LC50 MEL-28; for IC (TGI): TGI=total growth inhibition (cytostatic effect), read-out: TGI MEL-28
# Method in brief: as §1
smiles,measurement,setting,value
COc1cc(-c2c3c4cc(OC)c(OC(C)C)cc4oc(=O)c3n3ccc4c([N+](=O)[O-])cccc4c23)ccc1OC(C)C [Compound 54],GI50,HeLa,0.616 µM
same,CC50,HeLa,17.2 µM
same,IC (TGI),HeLa,2.71 µM
same,GI50,PANC-1,0.711 µM
same,CC50,PANC-1,17.2 µM
same,IC (TGI),PANC-1,2.59 µM
same,GI50,HeLa-APL,3.83 µM
same,CC50,HeLa-APL,17.2 µM
same,IC (TGI),HeLa-APL,17.2 µM
same,GI50,LoVo-Dox,12.5 µM
same,CC50,LoVo-Dox,17.2 µM
same,IC (TGI),LoVo-Dox,17.2 µM
same,GI50,IGROV-ET,6.64 µM
same,CC50,IGROV-ET,17.2 µM
same,IC (TGI),IGROV-ET,17.2 µM
same,GI50,K-562,3.76 µM
same,CC50,K-562,17.2 µM
same,IC (TGI),K-562,14.2 µM
same,GI50,HT-29,1.52 µM
same,CC50,HT-29,17.2 µM
same,IC (TGI),HT-29,17.2 µM
same,GI50,LoVo,3.4 µM
same,CC50,LoVo,17.2 µM
same,IC (TGI),LoVo,8.94 µM
same,GI50,A-549,2.85 µM
same,CC50,A-549,17.2 µM
same,IC (TGI),A-549,15.1 µM
same,GI50,SK-BR-3,1.05 µM
same,CC50,SK-BR-3,17.2 µM
same,IC (TGI),SK-BR-3,4.31 µM
same,GI50,DU-145,2.88 µM
same,CC50,DU-145,17.2 µM
same,IC (TGI),DU-145,7.16 µM
same,GI50,IGROV,0.884 µM
same,CC50,IGROV,13.3 µM
same,IC (TGI),IGROV,4.02 µM
same,GI50,LNCaP,1.71 µM
same,CC50,LNCaP,11.1 µM
same,IC (TGI),LNCaP,4.34 µM
same,GI50,SK-MEL-28,1.53 µM
same,CC50,SK-MEL-28,17.2 µM
same,IC (TGI),SK-MEL-28,5.7 µM
COc1cc(-c2c3n(c4c(=O)oc5cc(N)c(OC)cc5c24)CCc2cc(OC)c(OC)cc2-3)ccc1N [Compound 57],GI50,HeLa,0.685 µM
same,CC50,HeLa,19.5 µM
same,IC (TGI),HeLa,5.67 µM
same,GI50,PANC-1,0.611 µM
same,CC50,PANC-1,19.5 µM
same,IC (TGI),PANC-1,9.7 µM
same,GI50,HeLa-APL,3.68 µM
same,CC50,HeLa-APL,19.5 µM
same,IC (TGI),HeLa-APL,11 µM
same,GI50,LoVo-Dox,0.828 µM
same,CC50,LoVo-Dox,19.5 µM
same,IC (TGI),LoVo-Dox,6.91 µM
same,GI50,IGROV-ET,0.89 µM
same,CC50,IGROV-ET,19.5 µM
same,IC (TGI),IGROV-ET,6.43 µM
same,GI50,K-562,2.69 µM
same,CC50,K-562,19.5 µM
same,IC (TGI),K-562,19.5 µM
same,GI50,HT-29,3.49 µM
same,CC50,HT-29,19.5 µM
same,IC (TGI),HT-29,19.5 µM
same,GI50,LoVo,0.717 µM
same,CC50,LoVo,19.5 µM
same,IC (TGI),LoVo,5.3 µM
same,GI50,A-549,1.29 µM
same,CC50,A-549,19.5 µM
same,IC (TGI),A-549,19.5 µM
same,GI50,SK-BR-3,0.317 µM
same,CC50,SK-BR-3,19.5 µM
same,IC (TGI),SK-BR-3,5.24 µM
same,GI50,DU-145,3.89 µM
same,CC50,DU-145,19.5 µM
same,IC (TGI),DU-145,12.2 µM
same,GI50,IGROV,0.847 µM
same,CC50,IGROV,19.5 µM
same,IC (TGI),IGROV,5.88 µM
same,GI50,LNCaP,2.16 µM
same,CC50,LNCaP,13.9 µM
same,IC (TGI),LNCaP,5.47 µM
same,GI50,SK-MEL-28,1.68 µM
same,CC50,SK-MEL-28,19.5 µM
same,IC (TGI),SK-MEL-28,12.6 µM
